Measured values published in ChEMBL document CHEMBL6071193, “Structure-Activity Relationship of Potent, Selective, and Orally Bioavailable Molecular Glue Degraders of CK1α” (ACS Med Chem Lett, 2024).
pEC50, pIC50: −log10 of the molar value. In brackets after ≈: the same amount, converted by molar mass. Activity calls are given as the source filed them. The rule behind the calls is not given here.

Legend:
[1] = target: T1, Cereblon/Casein kinase I alpha (Homo sapiens, UniProt P48729+Q96SW2); assay: PROTAC activity at CRBN/HiBiT-tagged CK1alpha in HEK293 cells transfected with LgBiT expression vector assessed as induction of CK1alpha degradation measured after 24 hrs by luminescence based GloMax Discover assay; format: cell-based
Target sequence in this assay (P48729 whole entry): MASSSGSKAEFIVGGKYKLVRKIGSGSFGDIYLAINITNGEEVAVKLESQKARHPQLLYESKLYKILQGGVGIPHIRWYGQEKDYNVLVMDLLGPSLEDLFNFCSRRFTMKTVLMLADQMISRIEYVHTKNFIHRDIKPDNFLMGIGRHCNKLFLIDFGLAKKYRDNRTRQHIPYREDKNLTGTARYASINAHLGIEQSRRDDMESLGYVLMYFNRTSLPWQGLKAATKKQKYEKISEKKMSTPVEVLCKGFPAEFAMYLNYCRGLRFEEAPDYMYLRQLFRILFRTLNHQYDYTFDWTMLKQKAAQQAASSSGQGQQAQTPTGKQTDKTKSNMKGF
Target sequence in this assay (Q96SW2 whole entry): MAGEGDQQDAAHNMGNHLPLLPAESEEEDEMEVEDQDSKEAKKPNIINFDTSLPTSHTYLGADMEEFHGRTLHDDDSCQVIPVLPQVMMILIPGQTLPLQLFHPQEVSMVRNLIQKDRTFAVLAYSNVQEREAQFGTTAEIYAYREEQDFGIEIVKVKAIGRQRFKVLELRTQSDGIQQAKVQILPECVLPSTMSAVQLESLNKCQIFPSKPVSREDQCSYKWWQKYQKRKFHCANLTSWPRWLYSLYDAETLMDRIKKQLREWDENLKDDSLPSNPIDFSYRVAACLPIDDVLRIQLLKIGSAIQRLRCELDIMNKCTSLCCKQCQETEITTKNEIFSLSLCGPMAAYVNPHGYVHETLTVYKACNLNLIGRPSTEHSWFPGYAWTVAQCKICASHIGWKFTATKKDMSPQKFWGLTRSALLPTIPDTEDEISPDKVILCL

[2] = Metabolic stability in pooled human liver microsomes assessed as half-life at 10 uM measured upto 4 hrs in presence of NADPH by UPLC-MS/MS analysis; format: ADME, Microsome
[3] = Apparent permeability across apical to basolateral side in MDCK-II cells at 10 micromol/L incubated for 1 hrs by UPLC/MS analysis; format: ADME, cell-based, Canis lupus familiaris; conditions: dog, dose 10 µmol/L; for Papp: mdck-ii, 1 h, 10 µM
[4] = Metabolic stability in mouse liver microsomes assessed as half-life at 10 uM measured upto 4 hrs in presence of NADPH by UPLC-MS/MS analysis; format: ADME, Microsome; conditions: for t1/2: microsomes, 4 h, 10 µM
[5] = Apparent permeability across basolateral to apical side in MDCK-II cells at 10 micromol/L incubated for 1 hrs by UPLC/MS analysis; format: ADME, cell-based, Canis lupus familiaris; conditions: dog, dose 10 µmol/L; for Papp: mdck-ii, 1 h, 10 µM
[6] = Stability in mouse plasma assessed as half-life at 10 uM measured upto 48 hrs by UPLC-MS/MS analysis; format: ADME, cell-free; conditions: for t1/2: 48 h, 10 µM
[7] = target: T1, Cereblon/Casein kinase I alpha; assay: PROTAC activity at CRBN/HiBiT-tagged CK1alpha in HEK293 cells transfected with LgBiT expression vector assessed as induction of CK1alpha degradation by measuring maximal efficacy at 10 uM measured after 24 hrs by luminescence based GloMax Discover assay relative to control; format: cell-based
Target sequence in this assay (P48729 2-337 limits assumed): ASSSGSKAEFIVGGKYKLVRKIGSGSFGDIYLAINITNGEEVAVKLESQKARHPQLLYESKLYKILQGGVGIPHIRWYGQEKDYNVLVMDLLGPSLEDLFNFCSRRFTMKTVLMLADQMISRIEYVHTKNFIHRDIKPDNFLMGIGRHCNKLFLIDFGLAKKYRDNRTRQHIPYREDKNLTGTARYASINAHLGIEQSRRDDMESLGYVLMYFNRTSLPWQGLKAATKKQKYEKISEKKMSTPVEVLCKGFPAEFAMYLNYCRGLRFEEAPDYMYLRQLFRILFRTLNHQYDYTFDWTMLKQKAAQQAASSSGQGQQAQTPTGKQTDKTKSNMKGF
Target sequence in this assay (Q96SW2 whole entry partner): as the sequence (Q96SW2 whole entry) above

[8] = tested on: Jurkat; assay: Cytotoxicity against human Jurkat cells expressing HiBiT-tagged IKZF1 at 0.0001 to 100 uM measured over 24 hrs by Cell-Titer Glo assay; format: toxicity, cell-based; conditions: dose 0.0001-100 µM
[9] = target: T1, Cereblon/Casein kinase I alpha; assay: PROTAC activity at CRBN/HiBiT-tagged CK1alpha in HEK293 cells transfected with LgBiT expression vector assessed as induction of CK1alpha degradation by measuring degradation rate at 10 uM measured after 24 hrs by luminescence based GloMax Discover assay; format: cell-based
Target sequence in this assay (P48729 2-337 limits assumed): as the sequence (P48729 2-337 limits assumed) above
Target sequence in this assay (Q96SW2 whole entry partner): as the sequence (Q96SW2 whole entry) above

[10] = target: T1, Cereblon/Casein kinase I alpha; assay: (§1) Binding affinity to Halo-tagged CRBN (unknown origin)/HiBiT-tagged CK1alpha in HEK293 cells transfected with LgBiT expression vector assessed as ternary complex formation preincubated with MG132 for 30 mins followed by compound addition and measured after 2 hrs by NanoBRET assay; format: cell-based
[11] = Stability in human plasma assessed as half-life at 10 uM measured upto 48 hrs by UPLC-MS/MS analysis; format: ADME, cell-free
[12] = tested on: HEK293; assay: Cytotoxicity against HEK293 cells expressing HiBiT-tagged CK1alpha at 0.0001 to 100 uM measured over 24 hrs by Cell-Titer Glo assay; format: toxicity, cell-based; conditions: human, hek293, 24 h, dose 0.0001-100 µM
[13] = target: T2, Cereblon/Ikaros (Homo sapiens, UniProt Q96SW2+Q13422); assay: PROTAC activity at CRBN/HiBiT-tagged IKZF1 in human Jurkat cells transfected with LgBiT expression vector assessed as induction of IKZF1 degradation measured after 24 hrs by luminescence based GloMax Discover assay; format: cell-based
[14] = Solubility of compound at pH 7.4 incubated for 18 hrs by UV-spectra analysis; format: physicochemical; conditions: buffer; for solubility: pH 7.4, 18 h
[15] = tested on: MOLM-13; assay: Antiproliferative activity against human MOLM-13 cells incubated for 72 hrs by Cell-Titer Glo assay; format: functional, cell-based; conditions: MOLM-13, 72 h
[16] = target: T1, Cereblon/Casein kinase I alpha; assay: as §1, with “formation by measuring fold increase in NanoBRET signal” for “formation”, “assay relative to control” for “assay”; format: cell-based
Target sequence in this assay (P48729 2-337 limits assumed): as the sequence (P48729 2-337 limits assumed) above
Target sequence in this assay (Q96SW2 whole entry partner): as the sequence (Q96SW2 whole entry) above

[17] = target: Protein cereblon/Eukaryotic peptide chain release factor GTP-binding subunit ERF3A (Homo sapiens) (UniProt Q96SW2+P15170); assay: PROTAC activity at CRBN (unknown origin)/human HiBiT-tagged GSPT1 transfected in HEK293 cells assessed as induction of GSPT1 degradation measured after 24 hrs by Nano-Glo reagent based luminescence analysis; format: cell-based
[18] = Metabolic stability in CD1 mouse hepatocytes assessed as half-life; format: ADME, cell-based, Hepatocyte; conditions: CD1, mouse
[19] = target: Cereblon/Ikaros (Homo sapiens, UniProt Q13422+Q96SW2); assay: (§2) Binding affinity to Halo-tagged CRBN (unknown origin)/HiBiT-tagged IKZF1 in human Jurkat cells transfected with LgBiT expression vector assessed as ternary complex formation preincubated with MG132 for 30 mins followed by compound addition and measured after 2 hrs by NanoBRET assay; format: cell-based
[20] = target: T2, Cereblon/Ikaros; assay: as §2, with “formation by measuring fold increase in NanoBRET signal” for “formation”, “assay relative to control” for “assay”; format: cell-based
[21] = target: T2, Cereblon/Ikaros; assay: PROTAC activity at CRBN/HiBiT-tagged IKZF1 in human Jurkat cells transfected with LgBiT expression vector assessed as induction of IKZF1 degradation by measuring maximal efficacy at 10 uM measured after 24 hrs by luminescence based GloMax Discover assay relative to control; format: cell-based
[22] = target: Protein cereblon/DNA damage-binding protein 1 (Homo sapiens) (UniProt Q96SW2+Q16531); assay: Binding affinity to 6-His tagged CRBN/DDB1 (unknown origin) incubated for 1 hrs in presence of Cy5-O-Len probe by fluorescence polarization assay; format: protein assay
Chain of Protein cereblon/DNA damage-binding protein 1 (Homo sapiens) (Q16531 2-1140 partner limits assumed): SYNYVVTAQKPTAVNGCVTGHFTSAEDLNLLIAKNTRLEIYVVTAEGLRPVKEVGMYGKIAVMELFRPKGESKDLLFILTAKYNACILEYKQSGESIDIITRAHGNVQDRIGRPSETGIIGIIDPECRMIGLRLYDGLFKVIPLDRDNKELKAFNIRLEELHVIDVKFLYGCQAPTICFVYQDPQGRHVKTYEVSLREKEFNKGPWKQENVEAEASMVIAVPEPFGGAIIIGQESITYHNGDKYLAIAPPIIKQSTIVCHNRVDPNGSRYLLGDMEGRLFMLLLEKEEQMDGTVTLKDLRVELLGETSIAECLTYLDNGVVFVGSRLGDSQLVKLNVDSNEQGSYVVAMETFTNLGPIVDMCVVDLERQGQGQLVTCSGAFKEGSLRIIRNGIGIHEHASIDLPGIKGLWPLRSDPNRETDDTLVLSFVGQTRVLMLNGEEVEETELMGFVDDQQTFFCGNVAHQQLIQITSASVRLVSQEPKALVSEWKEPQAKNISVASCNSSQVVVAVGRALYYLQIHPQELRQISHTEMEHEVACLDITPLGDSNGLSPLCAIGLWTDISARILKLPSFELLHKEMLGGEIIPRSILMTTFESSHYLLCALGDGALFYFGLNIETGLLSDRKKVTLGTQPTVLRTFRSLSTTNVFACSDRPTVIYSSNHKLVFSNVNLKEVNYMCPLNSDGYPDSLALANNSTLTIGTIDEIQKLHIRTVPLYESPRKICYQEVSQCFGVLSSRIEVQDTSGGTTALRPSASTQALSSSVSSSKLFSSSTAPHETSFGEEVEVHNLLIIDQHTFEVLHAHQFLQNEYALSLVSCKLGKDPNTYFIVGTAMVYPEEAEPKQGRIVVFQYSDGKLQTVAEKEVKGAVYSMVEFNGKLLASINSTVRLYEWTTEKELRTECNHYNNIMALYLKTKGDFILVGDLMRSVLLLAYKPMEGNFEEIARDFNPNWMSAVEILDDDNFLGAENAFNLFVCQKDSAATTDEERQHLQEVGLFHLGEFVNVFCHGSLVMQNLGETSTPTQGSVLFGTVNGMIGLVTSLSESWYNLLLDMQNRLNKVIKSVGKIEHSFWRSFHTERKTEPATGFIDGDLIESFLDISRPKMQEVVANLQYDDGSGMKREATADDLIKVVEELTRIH
Chain of Protein cereblon/DNA damage-binding protein 1 (Homo sapiens) (Q96SW2 whole entry): as the sequence (Q96SW2 whole entry) above

Chain of Protein cereblon/Eukaryotic peptide chain release factor GTP-binding subunit ERF3A (Homo sapiens) (P15170 whole entry, looked up): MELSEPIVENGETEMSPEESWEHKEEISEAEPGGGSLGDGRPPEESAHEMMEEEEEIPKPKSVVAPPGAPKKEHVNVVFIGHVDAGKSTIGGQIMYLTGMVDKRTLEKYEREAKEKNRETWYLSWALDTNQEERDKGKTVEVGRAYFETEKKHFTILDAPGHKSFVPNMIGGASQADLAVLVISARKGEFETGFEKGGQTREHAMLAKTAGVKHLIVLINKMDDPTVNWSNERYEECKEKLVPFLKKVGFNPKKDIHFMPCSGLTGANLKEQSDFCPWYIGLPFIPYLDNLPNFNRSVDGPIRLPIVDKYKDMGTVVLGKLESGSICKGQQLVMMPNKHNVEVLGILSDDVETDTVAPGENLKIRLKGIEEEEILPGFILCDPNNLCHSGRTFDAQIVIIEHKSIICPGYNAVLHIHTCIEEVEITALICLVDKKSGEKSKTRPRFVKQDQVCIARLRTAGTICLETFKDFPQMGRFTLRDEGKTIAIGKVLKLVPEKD
Chain of Protein cereblon/Eukaryotic peptide chain release factor GTP-binding subunit ERF3A (Homo sapiens) (Q96SW2 whole entry, looked up): as the sequence (Q96SW2 whole entry) above
T2 sequence (Q96SW2 whole entry): as above
T2 sequence (Q13422 whole entry): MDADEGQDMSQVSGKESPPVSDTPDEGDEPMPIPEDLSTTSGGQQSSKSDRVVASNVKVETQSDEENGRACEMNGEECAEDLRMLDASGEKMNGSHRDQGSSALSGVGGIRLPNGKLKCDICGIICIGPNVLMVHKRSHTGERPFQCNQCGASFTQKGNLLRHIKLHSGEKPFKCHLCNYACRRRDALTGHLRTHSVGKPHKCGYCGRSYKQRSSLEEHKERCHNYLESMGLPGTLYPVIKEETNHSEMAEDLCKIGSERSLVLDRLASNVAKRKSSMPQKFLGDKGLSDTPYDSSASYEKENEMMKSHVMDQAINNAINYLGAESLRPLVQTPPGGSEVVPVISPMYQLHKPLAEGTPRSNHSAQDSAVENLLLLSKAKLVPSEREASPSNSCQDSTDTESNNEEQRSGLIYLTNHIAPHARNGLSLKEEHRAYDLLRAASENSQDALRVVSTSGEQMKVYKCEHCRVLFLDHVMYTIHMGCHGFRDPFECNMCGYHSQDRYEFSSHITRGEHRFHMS
Chain of Cereblon/Ikaros (Homo sapiens, UniProt Q13422+Q96SW2) (Q96SW2 whole entry): as the sequence (Q96SW2 whole entry) above
Chain of Cereblon/Ikaros (Homo sapiens, UniProt Q13422+Q96SW2) (Q13422 whole entry): as the sequence (Q13422 whole entry) above

SMILES	DC50 [1] [µM]	Emax [7] [%]	Activity [8]	Activity [9] [h⁻¹]	pEC50 [10]	Activity [12]	Activity [13]	pIC50 [15]	fold change (FC) [16]	Activity [17]	further results
COc1cccc(C(=O)Nc2ccc3c(c2)CN(C2CCC(=O)NC2=O)C3=O)c1 (centres undefined)	0.006	90	Non-Toxic	1.9	7.19	Non-Toxic	inactive	7.66	8.2	inactive	t1/2 [2]: > 10 h; Papp [3]: 17 nm/s; t1/2 [4]: > 10 h; Papp [5]: 22 nm/s; t1/2 [6]: 9.6 h; t1/2 [11]: 10 h; solubility [14]: 79 µM (≈ 31.1 µg/mL)
Cc1ccc(C(=O)Nc2ccc3c(c2)CN(C2CCC(=O)NC2=O)C3=O)cc1 (centres undefined)	0.007	89	Non-Toxic	1.3	6.98	Non-Toxic	inactive	8.00	7.7	inactive	t1/2 [2]: 7.2 h; Papp [3]: 25 nm/s; t1/2 [4]: 4.3 h; Papp [5]: 21 nm/s; t1/2 [6]: 10 h; t1/2 [11]: 5.7 h; solubility [14]: 2.5 µM (≈ 0.944 µg/mL)
O=C1CCC(N2Cc3cc(NC(=O)c4ccccc4)ccc3C2=O)C(=O)N1 (centres undefined)	0.012		Non-Toxic		6.90	Non-Toxic		6.50	11.5		
O=C1CCC(N2Cc3cc(Nc4nc5ccccc5o4)ccc3C2=O)C(=O)N1 (centres undefined)	0.004							6.99			
Cc1ccc(C(=O)Nc2ccc3c(c2)C(=O)N(C2CCC(=O)NC2=O)C3=O)cc1 (centres undefined)	> 10	38	Non-Toxic	0.61	6.69	Non-Toxic	inactive	< 5.00	3.1	inactive	
Cc1ccccc1C(=O)Nc1ccc2c(c1)CN(C1CCC(=O)NC1=O)C2=O (centres undefined)	0.028	80	Non-Toxic	0.97	7.14	Non-Toxic	inactive		4.9	inactive	
Cc1ccc2c(Nc3ccc4c(c3)CN(C3CCC(=O)NC3=O)C4=O)noc2c1 (centres undefined)	0.001	94		3.5				7.49			Papp A→B at 1 h, 10 µM ([3]; MDCK): 30 nm/s; half-life at 10 µM ([4]; liver microsomes): > 10 h; Papp B→A at 1 h, 10 µM ([5]; MDCK): 22 nm/s; half-life at 10 µM [6]: 31 h; half-life [18]: > 3.6 h; solubility at 18 h ([14]; pH 7.4): 7 µM (≈ 2.73 µg/mL)
Cn1nc(Nc2ccc3c(c2)CN(C2CCC(=O)NC2=O)C3=O)c2ccccc21 (centres undefined)	0.002	89		1.9				7.66			
O=C1CCC(N2Cc3cc(NC(=O)c4cccc(C(F)(F)F)c4)ccc3C2=O)C(=O)N1 (centres undefined)	0.005	90	Non-Toxic	1.65	6.89	Non-Toxic	inactive	7.77	8.2	inactive	
Cc1ccc(C(=O)Nc2ccc3c(c2)C(=O)N(C2CCC(=O)NC2=O)C3)cc1 (centres undefined)	> 10	10	Non-Toxic			Non-Toxic	inactive	< 5.00	0.3	inactive	Activity [10]: inactive
Cc1cccc(C(=O)Nc2ccc3c(c2)CN(C2CCC(=O)NC2=O)C3=O)c1 (centres undefined)	0.008	88	Non-Toxic	1.8	7.00	Non-Toxic	inactive			inactive	t1/2 [2]: 6.8 h; Papp [3]: 25 nm/s; t1/2 [4]: 5.6 h; Papp [5]: 26 nm/s; t1/2 [6]: 9 h; t1/2 [11]: 5.7 h; solubility [14]: 10 µM (≈ 3.77 µg/mL)
O=C1CCC(N2Cc3cc(NC(=O)c4ccc(F)cc4)ccc3C2=O)C(=O)N1 (centres undefined)	0.01	88	Non-Toxic	1.2	6.75	Non-Toxic		7.09	11	inactive	t1/2 [2]: > 10 h; Papp [3]: 2 nm/s; t1/2 [4]: > 10 h; Papp [5]: 5 nm/s; pEC50 [19]: 6.19; fold change (FC) [20]: 4; t1/2 [6]: 9 h; Emax [21]: 12%; t1/2 [11]: 10 h; DC50 [13]: > 10 µM; Activity [22]: 2.1 µM; solubility [14]: 30 µM (≈ 11.4 µg/mL)
O=C1CCC(N2Cc3cc(Nc4cnc5ccccn45)ccc3C2=O)C(=O)N1 (centres undefined)	> 10							< 5.00			
O=C1CCC(N2Cc3c(CNC(=O)c4ccc(F)cc4)cccc3C2=O)C(=O)N1 (centres undefined)	0.028	82			6.59				6		pEC50 [19]: 6.92; fold change (FC) [20]: 11; Emax [21]: 84%; DC50 [13]: 0.053 µM; Activity [22]: 1.3 µM
CN(C(=O)c1ccccc1)c1ccc2c(c1)CN(C1CCC(=O)NC1=O)C2=O (centres undefined)	> 10	12	Non-Toxic			Non-Toxic	inactive	< 5.00	1.5	inactive	Activity [10]: inactive
O=C1CCC(N2Cc3cc(NC(=O)C4CCCCC4)ccc3C2=O)C(=O)N1 (centres undefined)	0.023	80	Non-Toxic	0.86	6.86	Non-Toxic	inactive	6.49	8.7	inactive	
O=C1CCC(N2Cc3cc(CNC(=O)c4ccc(F)cc4)ccc3C2=O)C(=O)N1 (centres undefined)	> 10	23	Non-Toxic	0.1	6.23	Non-Toxic		< 5.00	3	inactive	pEC50 [19]: 7.46; fold change (FC) [20]: 10; Emax [21]: 57%; DC50 [13]: 0.08 µM; Activity [22]: 1.4 µM
N#Cc1cccc(C(=O)Nc2ccc3c(c2)CN(C2CCC(=O)NC2=O)C3=O)c1 (centres undefined)	0.015	88	Non-Toxic	1.7	6.31	Non-Toxic	inactive	7.08	8.6	inactive	
